SMILES | melting point
O=C(O)[C@@H]1CSC(c2ccc(-c3ccc(-c4c(Cc5ccccc5)oc5ccccc45)cc3)cc2)N1 (mixture of isomers) [Example 38, (2RS, 4R)-2-[4′-(2-Benzylbenzofuran-3-yl)biphen-4-yl]thiazolidine-4-carboxylic acid] | 148 °C (dec.)
O=C(O)[C@@H]1CSC(c2ccc(-c3ccc(-n4ccc5ccccc54)cc3)cc2)N1 (stereo in doubt) [Example 27, 2-(4′-Indol-1-yl-biphen-4-yl)thiazolidine-4-carboxylic acid] | 135 to 137 °C (dec.)
O=C(O)C(=O)Nc1cc(-c2ccc(-c3cccc4c3oc3ccccc34)cc2)cn(Cc2ccccc2)c1=O [Example 4, N-[1-Benzyl-5-(4-dibenzofuran-4-yl-phenyl)-2-oxo-1,2-dihydro-pyridin-3-yl]-oxalamic acid] | 220 to 223 °C
CCc1ccc(-c2sc(NC(=O)c3ccc(S(=O)(=O)N4CCCC4C(=O)O)cc3)nc2-c2ccc(Cl)cc2)cc1 (stereo not drawn) [Example 5, 1-{4-[4-(4-Chloro-phenyl)-5-(4-ethyl-phenyl)-thiazol-2-ylcarbamoyl]-benzenesulfonyl}-pyrrolidine-2-carboxylic acid] | 289 to 292 °C
O=C(O)CCNc1cc(-c2ccc(-c3cccc4c3oc3ccccc34)cc2)nc(Cc2ccccc2)n1 [Example 45, 3-[2-Benzyl-6-(4-dibenzofuran-4-yl-phenyl)-pyrimidin-4-ylamino]-propionic acid] | 205 °C (dec.)
O=C(O)CCNc1cc(-c2ccc(-c3cccc4c3oc3ccccc34)cc2)nc(-c2ccccc2)n1 [Example 46, 3-[2-phenyl-6-(4-dibenzofuran-4-yl-phenyl)-pyrimidin-4-ylamino]-propionic acid] | 210 °C (dec.)
